According to US20090149463A1, “Therapeutic agents” (priority 2004, published 2009):
pIC50: −log10 of the molar value.

Experiments:
CB1 receptor = target: T1, CB1 receptor (Homo sapiens, UniProt P21554); test: [35S]-GTPγS binding assay on membranes from cells stably transfected with the CB1 gene, inhibition of CP55940 (EC80); assay type: biochemical; conditions: half maximal inhibition of GTPγS binding in presence of EC80 concentration of agonist CP55940; CB1-transfected cell membranes
T1 construct: expressed in transfected cells
Protocol: Compounds of the present invention are active against the receptor product of the CB1 gene. The affinity of the compounds of the invention for central cannabinoid receptors is demonstrable in methods described in Devane et al, Molecular Pharmacology, 1988, 34, 605 or those described in WO01/70700 or EP 656354. Alternatively the assay may be performed as follows.
10 μg of membranes prepared from cells stably transfected with the CB1 gene were suspended in 200 μl of 100 mM NaCl, 5 mM MgCl2, 1 mM EDTA, 50 mM HEPES (pH 7.4), 1 mM DTT, 0.1% BSA and 100 μM GDP. To this was added an EC80 concentration of agonist (CP55940), the required concentration of test compound and 0.1 μCi [^35S]-GTPγS. The reaction was allowed to proceed at 30° C. for 45 min. […] Filters were then covered with scintilant and counted for the amount of [^35S]-GTPγS retained by the filter.
Activity is measured in the absence of all ligands (minimum activity) or in the presence of an EC80 concentration of CP55940 (maximum activity). […] At various concentrations of novel ligand, activity is calculated as a percentage of the maximum activity and plotted. The data are fitted using the equation y=A+((B−A)/1+((C/x)UD)) and the IC50 value determined as the concentration required to give half maximal inhibition of GTPγS binding under the conditions used.

T1 sequence (P21554 whole entry): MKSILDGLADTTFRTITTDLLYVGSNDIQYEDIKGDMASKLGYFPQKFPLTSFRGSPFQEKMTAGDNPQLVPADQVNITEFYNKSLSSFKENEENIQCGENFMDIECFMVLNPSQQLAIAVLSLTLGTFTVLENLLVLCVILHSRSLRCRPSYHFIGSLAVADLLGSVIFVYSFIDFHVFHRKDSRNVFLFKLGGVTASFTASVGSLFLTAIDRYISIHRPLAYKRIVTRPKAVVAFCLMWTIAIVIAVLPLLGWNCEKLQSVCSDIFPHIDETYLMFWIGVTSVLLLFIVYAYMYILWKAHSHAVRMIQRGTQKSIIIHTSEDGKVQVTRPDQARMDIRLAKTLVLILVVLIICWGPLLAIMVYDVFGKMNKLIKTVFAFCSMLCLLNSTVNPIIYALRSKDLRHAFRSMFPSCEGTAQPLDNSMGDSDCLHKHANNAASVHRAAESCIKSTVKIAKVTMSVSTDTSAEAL

melting point [°C]	pIC50 (CB1 receptor)	Structure (SMILES)
190		CCCS(=O)(=O)Oc1ccc(-c2c(C)c(C(=O)NN3CCCCC3)nn2-c2ccc(Cl)cc2Cl)cc1 [Example 1, Propane-1-sulfonic acid 4-[2-(2,4-dichlorophenyl)-4-methyl-5-(piperidin-1-ylcarbamoyl)2H-pyrazol-3-yl]-phenyl Ester]
	8.22	CCCS(=O)(=O)Oc1ccc(-c2c(C)c(C(=O)NC3(C(=O)OC)CCCC3)nn2-c2ccc(Cl)cc2Cl)cc1 [Example 10, Methyl 1-{[(1-(2,4-dichlorophenyl)-4-methyl-5-{4[(propylsulfonyl)oxy]phenyl}-1H-pyrazol-3-yl)carbonyl]amino}cyclopentanecarboxylate]
	8.19	CCCOC(=O)Oc1ccc(-c2c(C)c(C(=O)NN3CCCCC3)nn2-c2ccc(Cl)cc2Cl)cc1 [Example 11, Carbonic acid 4-[2-(2,4-dichlorophenyl)-4-methyl-5-(piperidine-1-ylcarbamoyl)-2H-pyrazol-3-yl]-phenyl Ester Propyl Ester]
